Results published in US11130756B2, “[1,2,4]Triazolo[4,3-A]pyridinyl substituted indole compounds” (BRISTOL-MYERS SQUIBB COMPANY, priority 2017, dated 2021).

Legend:
Type in all cases: cell-based
[1] = molecular target: T1, human TLR9 (Homo sapiens, UniProt Q9NR96); assay: TLR9 inhibition reporter assay (HEK-Blue, SEAP); conditions: HEK-Blue cells overexpressing human TLR9, ODN2006 5 nM, 22 hour incubation
T1 construct: host or cells: HEK-Blue cells
T1 sequence (Q9NR96 26-1032): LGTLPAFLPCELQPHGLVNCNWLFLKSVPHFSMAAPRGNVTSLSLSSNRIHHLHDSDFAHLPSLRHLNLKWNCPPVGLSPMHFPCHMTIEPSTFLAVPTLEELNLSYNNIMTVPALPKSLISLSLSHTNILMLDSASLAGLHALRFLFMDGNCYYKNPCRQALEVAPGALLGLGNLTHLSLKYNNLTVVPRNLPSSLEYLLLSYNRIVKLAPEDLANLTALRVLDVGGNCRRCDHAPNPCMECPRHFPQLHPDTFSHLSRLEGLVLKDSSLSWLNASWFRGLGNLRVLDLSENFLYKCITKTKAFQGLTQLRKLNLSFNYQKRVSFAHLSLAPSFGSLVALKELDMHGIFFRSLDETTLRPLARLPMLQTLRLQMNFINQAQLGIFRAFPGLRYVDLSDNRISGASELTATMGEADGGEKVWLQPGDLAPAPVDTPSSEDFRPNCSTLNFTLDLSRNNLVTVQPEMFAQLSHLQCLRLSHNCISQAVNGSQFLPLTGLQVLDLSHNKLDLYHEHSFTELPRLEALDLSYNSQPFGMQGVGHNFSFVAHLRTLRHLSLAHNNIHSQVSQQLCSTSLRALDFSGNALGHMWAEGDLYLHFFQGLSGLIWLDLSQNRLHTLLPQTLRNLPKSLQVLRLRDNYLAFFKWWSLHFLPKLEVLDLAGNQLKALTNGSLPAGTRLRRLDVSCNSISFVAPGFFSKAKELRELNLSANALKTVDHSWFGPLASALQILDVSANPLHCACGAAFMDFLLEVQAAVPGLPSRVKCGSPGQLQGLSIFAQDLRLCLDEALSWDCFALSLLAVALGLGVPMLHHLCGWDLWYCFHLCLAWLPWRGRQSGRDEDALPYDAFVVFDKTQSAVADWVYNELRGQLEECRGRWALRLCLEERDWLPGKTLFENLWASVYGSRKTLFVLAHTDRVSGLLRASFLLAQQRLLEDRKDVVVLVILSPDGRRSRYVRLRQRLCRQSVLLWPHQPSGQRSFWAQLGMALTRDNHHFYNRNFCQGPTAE
Summary of the method: (§1)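 Dose–response from 0.05 nM to 50 μM was run in HEK-Blue human TLR7, TLR8 and TLR9 reporter cells. After 30 min at room temperature with compound, ligand was added (TLR7 gardiquimod 7.5 μM; TLR8 R848 15.9 μM; TLR9 ODN2006 5 nM) and SEAP measured next day, at 22 h.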

[2] = molecular target: T2, human TLR8 (Homo sapiens, UniProt Q9NR97); assay: TLR8 inhibition reporter assay (HEK-Blue, SEAP); conditions: HEK-Blue cells overexpressing human TLR8, R848 15.9 μM, 22 hour incubation
T2 construct: host or cells: HEK-Blue cells
T2 sequence (Q9NR97 27-1041): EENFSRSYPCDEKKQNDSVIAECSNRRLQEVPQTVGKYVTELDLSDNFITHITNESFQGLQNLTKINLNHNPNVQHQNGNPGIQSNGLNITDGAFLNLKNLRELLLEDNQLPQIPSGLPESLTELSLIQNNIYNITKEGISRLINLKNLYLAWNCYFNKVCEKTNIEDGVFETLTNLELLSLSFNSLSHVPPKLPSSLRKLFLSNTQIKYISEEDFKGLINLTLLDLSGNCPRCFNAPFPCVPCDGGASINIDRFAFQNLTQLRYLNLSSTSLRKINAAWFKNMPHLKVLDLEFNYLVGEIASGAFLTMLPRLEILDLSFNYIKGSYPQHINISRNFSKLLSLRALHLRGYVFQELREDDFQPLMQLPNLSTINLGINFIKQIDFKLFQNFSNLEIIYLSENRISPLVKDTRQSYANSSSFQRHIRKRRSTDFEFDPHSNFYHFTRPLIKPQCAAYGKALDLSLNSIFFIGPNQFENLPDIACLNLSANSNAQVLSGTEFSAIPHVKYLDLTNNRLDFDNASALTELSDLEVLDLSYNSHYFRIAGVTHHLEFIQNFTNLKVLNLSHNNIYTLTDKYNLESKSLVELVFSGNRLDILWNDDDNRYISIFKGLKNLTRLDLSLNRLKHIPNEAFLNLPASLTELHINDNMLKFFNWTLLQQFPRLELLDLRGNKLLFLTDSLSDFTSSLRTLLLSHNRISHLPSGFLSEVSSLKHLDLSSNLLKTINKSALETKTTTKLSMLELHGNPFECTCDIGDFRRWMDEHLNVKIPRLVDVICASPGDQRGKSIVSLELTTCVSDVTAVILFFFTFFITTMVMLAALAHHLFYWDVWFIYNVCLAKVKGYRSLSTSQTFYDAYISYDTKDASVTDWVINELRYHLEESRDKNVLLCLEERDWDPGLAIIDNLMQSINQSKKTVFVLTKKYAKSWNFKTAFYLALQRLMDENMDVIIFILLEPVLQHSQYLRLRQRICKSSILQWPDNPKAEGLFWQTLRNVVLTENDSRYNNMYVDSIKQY
Summary of the method: as §1

[3] = molecular target: T3, human TLR7 (Homo sapiens, UniProt Q9NYK1); assay: TLR7 inhibition reporter assay (HEK-Blue, SEAP); conditions: HEK-Blue cells overexpressing human TLR7, gardiquimod 7.5 μM, 22 hour incubation
T3 construct: host or cells: HEK-Blue cells
T3 sequence (Q9NYK1 27-1049): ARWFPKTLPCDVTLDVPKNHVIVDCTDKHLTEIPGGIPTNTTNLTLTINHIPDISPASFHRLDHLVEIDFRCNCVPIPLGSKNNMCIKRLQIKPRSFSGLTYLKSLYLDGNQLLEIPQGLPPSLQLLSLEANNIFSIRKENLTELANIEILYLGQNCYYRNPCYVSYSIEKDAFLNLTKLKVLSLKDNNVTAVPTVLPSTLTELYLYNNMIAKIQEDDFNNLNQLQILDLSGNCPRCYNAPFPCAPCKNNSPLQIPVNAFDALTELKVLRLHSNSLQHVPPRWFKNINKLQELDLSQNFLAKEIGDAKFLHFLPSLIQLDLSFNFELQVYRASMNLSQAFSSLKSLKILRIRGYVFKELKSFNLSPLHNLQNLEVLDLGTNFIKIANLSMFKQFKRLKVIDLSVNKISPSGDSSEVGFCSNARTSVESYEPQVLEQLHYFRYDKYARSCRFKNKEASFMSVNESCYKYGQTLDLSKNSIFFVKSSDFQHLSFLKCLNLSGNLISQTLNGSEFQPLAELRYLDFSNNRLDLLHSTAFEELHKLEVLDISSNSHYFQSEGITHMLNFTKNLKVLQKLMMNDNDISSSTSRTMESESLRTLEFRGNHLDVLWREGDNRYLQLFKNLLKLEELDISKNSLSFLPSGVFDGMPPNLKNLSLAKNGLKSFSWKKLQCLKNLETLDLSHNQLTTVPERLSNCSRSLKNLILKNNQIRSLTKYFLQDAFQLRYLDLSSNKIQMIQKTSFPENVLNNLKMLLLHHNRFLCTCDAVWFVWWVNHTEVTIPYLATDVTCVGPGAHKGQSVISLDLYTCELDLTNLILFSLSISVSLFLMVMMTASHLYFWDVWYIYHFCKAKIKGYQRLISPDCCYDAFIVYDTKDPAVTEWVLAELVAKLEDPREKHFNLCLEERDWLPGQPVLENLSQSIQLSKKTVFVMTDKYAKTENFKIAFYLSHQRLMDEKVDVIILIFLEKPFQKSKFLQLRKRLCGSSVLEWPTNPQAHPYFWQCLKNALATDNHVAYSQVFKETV
Summary of the method: as §1

Compound | IC50 [1] | IC50 [2] | IC50 [3]
Cc1cc(-c2[nH]c3ccc(C4CCN(CCCC(F)(F)F)CC4)cc3c2C(C)C)cn2cnnc12 [Example 36, 6-(3-isopropyl-5-(1-(4,4,4-trifluorobutyl)piperidin-4-yl)-1H-indol-2-yl)-8-methyl-[1,2,4]triazolo[4,3-a]pyridine] | 919 nM | 4.5 nM | 1.2 nM
Cc1cc(-c2[nH]c3ccc(C4CCN(CC#N)CC4)cc3c2C(C)C)cn2cnnc12 [Example 37, 2-(4-(3-isopropyl-2-(8-methyl-[1,2,4]triazolo[4,3-a]pyridin-6-yl)-1H-indol-5-yl)piperidin-1-yl)acetonitrile] | 1520 nM | 6.5 nM | 0.3 nM
COCc1nnc2ccc(-c3[nH]c4ccc(C5CCN(CC(=O)N(C)C)CC5)cc4c3C(C)C)cn12 [Example 38, 2-(4-(3-isopropyl-2-(3-(methoxymethyl)-[1,2,4]triazolo[4,3-a]pyridin-6-yl)-1H-indol-5-yl)piperidin-1-yl)-N,N-dimethylacetamide] | 3120 nM | 402 nM | 281 nM
Cc1c(-c2[nH]c3ccc(C4CCN(CC(=O)N(C)C)CC4)cc3c2C(C)C)cn2cnnc2c1C [Example 39, 2-(4-(2-(7,8-dimethyl-[1,2,4]triazolo [4,3-a]pyridin-6-yl)-3-isopropyl-1H-indol-5-yl)piperidin-1-yl)-N,N-dimethylacetamide] | 4240 nM | 9.5 nM | 1.9 nM
Cc1cc(-c2[nH]c3ccc(C4CCN(Cc5ncn(C)n5)CC4)cc3c2C(C)C)c(C)n2cnnc12 [Example 40, 6-(3-isopropyl-5-(1-((1-methyl-1H-1,2,4-triazol-3-yl)methyl)piperidin-4-yl)-1H-indol-2-yl)-5,8-dimethyl-[1,2,4]triazolo[4,3-a]pyridine] | 7890 nM | 4.5 nM | 104 nM
Cc1cc(-c2[nH]c3ccc(C4CCN(CCCC(F)(F)F)CC4)cc3c2C(C)C)c(C)n2cnnc12 [Example 41, 6-(3-isopropyl-5-(1-(4,4,4-trifluorobutyl)piperidin-4-yl)-1H-indol-2-yl)-5,8-dimethyl-[1,2,4]triazolo[4,3-a]pyridine] | 2850 nM | 3.3 nM | 25.5 nM
Cc1cc(-c2[nH]c3ccc(C4CCN(CC(=O)N(C)C)CC4)cc3c2C(C)C)c(C)n2cnnc12 [Example 42, 2-(4-(2-(5,8-dimethyl-[1,2,4]triazolo[4,3-a]pyridin-6-yl)-3-isopropyl-1H-indol-5-yl)piperidin-1-yl)-N,N-dimethylacetamide] | 3750 nM | 6 nM | 32.5 nM
Cc1c(-c2[nH]c3ccc(C4CCN(CCS(C)(=O)=O)CC4)cc3c2C(C)C)cn2cnnc2c1C [Example 43, 6-(3-isopropyl-5-(1-(2-(methylsulfonyl)ethyl)piperidin-4-yl)-1H-indol-2-yl)-7,8-dimethyl-[1,2,4]triazolo[4,3-a]pyridine] | 6610 nM | 3.2 nM | 1.8 nM
Cc1c(-c2[nH]c3ccc(C4CCN(CCCC(F)(F)F)CC4)cc3c2C(C)C)cn2cnnc2c1C [Example 44, 6-(3-isopropyl-5-(1-(4,4,4-trifluorobutyl)piperidin-4-yl)-1H-indol-2-yl)-7,8-dimethyl-[1,2,4]triazolo[4,3-a]pyridine] | 1750 nM | 6.5 nM | 1.7 nM
Cc1c(-c2[nH]c3ccc(C4CCN(Cc5ncn(C)n5)CC4)cc3c2C(C)C)cn2cnnc2c1C [Example 45, 6-(3-isopropyl-5-(1-((1-methyl-1H-1,2,4-triazol-3-yl)methyl)piperidin-4-yl)-1H-indol-2-yl)-7,8-dimethyl-[1,2,4]triazolo[4,3-a]pyridine] | 2310 nM | 8.1 nM | 3.2 nM
Cc1c(-c2[nH]c3ccc(C4CCN(CCS(C)(=O)=O)CC4)cc3c2C(C)C)cn2cnnc2c1Cl [Example 46, 8-chloro-6-(3-isopropyl-5-(1-(2-(methylsulfonyl)ethyl)piperidin-4-yl)-1H-indol-2-yl)-7-methyl-[1,2,4]triazolo[4,3-a]pyridine] | 8910 nM | 8.6 nM | 2.1 nM
Cc1c(-c2[nH]c3ccc(C4CCN(Cc5ncn(C)n5)CC4)cc3c2C(C)C)cn2cnnc2c1Cl [Example 47, 8-chloro-6-(3-isopropyl-5-(1-((1-methyl-1H-1,2,4-triazol-3-yl)methyl)piperidin-4-yl)-1H-indol-2-yl)-7-methyl-[1,2,4]triazolo[4,3-a] pyridine] | 2070 nM | 21.9 nM | 3.8 nM
Cc1c(-c2[nH]c3ccc(C4CCN(CCCC(F)(F)F)CC4)cc3c2C(C)C)cn2cnnc2c1Cl [Example 48, 8-chloro-6-(3-isopropyl-5-(1-(4,4,4-trifluorobutyl)piperidin-4-yl)-1H-indol-2-yl)-7-methyl-[1,2,4]triazolo[4,3-a]pyridine] | 2570 nM | 13.5 nM | 1.9 nM
